From patent US20170106109A1 (priority 2010, published 2017)

Assays:
[1] = tested on: λ phage DNA HindIII Marker
Ralstonia solanacearum [2] = format: cell-based
Ralstonia solanacearum [3] = format: cell-based; remark: listed apart in the source
Escherichia coli = format: cell-based

Which “DNA ladder on agarose electrophoresis” value [1] does the source give for `OO` [Sample 7-3, hydrogen peroxide] here?
Its value is “the DNA ladder did not change”.

How did the “survival of Ralstonia solanacearum” value (Ralstonia solanacearum [2]) turn out when `OO` [Sample 4-3, hydrogen peroxide] was run?
The value was “a large amount of Ralstonia solanacearum survived”.

How did the “change of bacterial density of Ralstonia solanacearum with time” value (Ralstonia solanacearum [3]) turn out when `OO` [Sample 6-3, hydrogen peroxide] was run?
Its value is “the bacterial density changed little”.

For `OO` [Sample 3-3, hydrogen peroxide], which “survival of Escherichia coli” value (Escherichia coli) is on record?
Its value is “a large amount of Escherichia coli survived”.
